# Laboratory results as given in patent publication US9642845B2, “Method for alleviating side effects of retinoic acid therapy and/or improving efficacy without interfering with efficacy” (University of Kentucky Research Foundation, priority 2007, dated 2017).
# How the values were obtained:
# photodamaged skin [1] = assay: Stratum corneum thickness of periorbital punch biopsies, clinical study; type: in vivo, human
# Protocol: (§1) A clinical study was conducted to examined the combined use of retinoic acid therapy with myristyl nicotinate (MN), a lipophilic derivative of niacin that enhances skin barrier function, in subjects with mild to moderate facial photodamage.
# All subjects selected for the study were female, between the ages of 30 and 60, with a score of I to IV on the Fitzpatrick Skin Classification, mild to moderate photodamaged skin as defined by a modified Glogau Classification of I to II, and with presence of dyschromia on the face as determined by a woods light visual scan.
# The subjects were randomly assigned to one of three groups of 20 subjects each. One month prior to the initiation of retinoic acid therapy, one of the groups (group 3) began to apply to the entire face, both night and morning, a formulation containing 5% myristyl nicotinate. Groups 1 and 2 applied, in the same manner, a placebo formulation in which myristyl myristate replaced myristyl nicotinate. […]
# Accordingly, periorbital biopsy samples obtained from study subjects were evaluated for stratum corneum thickness. A board certified dermatologist collected a 2-mm punch biopsy from the right or left side of the face as determined by a randomization design of 7 randomly selected subjects from each group at baseline and after 12 weeks of treatment. […]
# Histological images were taken of the H&E stained cross sections with an Olympus inverted stage microscope using a 10× by 0.45 Apochromat objective and a Nikon digital CCD camera. […] Suprapapillary epidermal thickness (as measured from the top of the dermal papilla to the top of the granular layer) and stratum corneum thickness (as measured from the top of the granular layer to the top of the stratum corneum) were measured. For each specimen, five different sites were measured and the average was calculated.
# photodamaged skin [2] = assay: Rates of transepidermal water loss (TEWL), right cheek, Dermalab; type: in vivo, human; details: for change from baseline in mean rates of TEWL: 12 weeks
# Protocol: as §1
# (§2) The subjects were randomly assigned to one of three groups of 20 subjects each. One month prior to the initiation of retinoic acid therapy, one of the groups (group 3) began to apply to the entire face, both night and morning, a formulation containing 5% myristyl nicotinate. Groups 1 and 2 applied, in the same manner, a placebo formulation in which myristyl myristate replaced myristyl nicotinate. Upon initiation of retinoic acid therapy (baseline), group 1 (placebo/placebo+RA) continued to use the placebo formulation as above, group 2 (placebo/MN+RA) initiated use of the 5% myristyl nicotinate formulation and group 3 (MN/MN+RA) continued to use the 5% myristyl nicotinate formulation. Retinoic acid therapy involved a 0.025% concentration of the drug applied at night, immediately following application of the placebo or myristyl nicotinate containing formulations. This strength of retinoic acid was chosen for this study as the subjects had mild to moderate photodamage.
# Determination of rates of TEWL provides a non-invasive assessment of relative skin barrier function. […] For the TEWL measurements, the instruments required a specified temperature and humidity range for optimal function, thus subjects were required to equilibrate to ambient conditions for at least 20 min prior to measurements. Temperature was maintained between 66 and 72° F. and relative humidity maintained between 15 and 55%. A computer-linked Dermalab instrument was used to measure TEWL at two points above the skin surface on the right cheeks of study subjects and the rate of water loss was calculated. Each TEWL measurement was averaged over a one-min measurement period.
# photodamaged skin [3] = assay: Clinical grading of tolerability (irritation/safety parameters); type: in vivo, human
# Protocol: as §1, §2
# (§3) In order to assess both the tolerability and efficacy of retinoic acid therapy, subjects also were clinically graded on the right and/or left side of the face for efficacy/performance parameters and irritation/safety parameters at baseline, and weeks 2, 4, 8, and 12.
# The most severe parameters of tolerability such as scaling/peeling and degree of erythema were graded on 3-point clinical scale at weeks 2, 4, 8, and 12, and mean values were determined. The frequency of less severe parameters of tolerability typical of retinoic acid therapy (including tightness/dryness, stinging, burning, and tingling) was also evaluated.
# photodamaged skin [4] = assay: Clinical grading of efficacy (dyschromia, fine lines, wrinkles, tactile roughness, temple laxity); type: in vivo, human; details: for grading of temple laxity vs placebo/placebo+RA: 12 weeks
# Protocol: as §1, §2, §3
# Clinical grading involved evaluation of dyschromia, fine lines, shallow wrinkles, tactile roughness, and temple laxity as a function of treatment time (at weeks 2, 4, 8, and 12).
# photodamaged skin [5] = assay: Suprapapillary epidermal thickness of periorbital punch biopsies; type: in vivo, human; details: for increase in epidermal thickness: 12 weeks
# Protocol: as §1, §2
# Accordingly, periorbital biopsy samples obtained from study subjects were evaluated for stratum corneum thickness. A board certified dermatologist collected a 2-mm punch biopsy from the right or left side of the face as determined by a randomization design of 7 randomly selected subjects from each group at baseline and after 12 weeks of treatment. The punch biopsies were formalin-fixed, embedded in paraffin, cut into 5 μm cross-sections, mounted on slides, and stained with hematoxylin-eosin (H&E).
# Histological images were taken of the H&E stained cross sections with an Olympus inverted stage microscope using a 10× by 0.45 Apochromat objective and a Nikon digital CCD camera. ImageJ image analysis software (NIH) was used to examine the images and perform measurements. Suprapapillary epidermal thickness (as measured from the top of the dermal papilla to the top of the granular layer) and stratum corneum thickness (as measured from the top of the granular layer to the top of the stratum corneum) were measured. For each specimen, five different sites were measured and the average was calculated.
# Since long term retinoid therapy is associated with an increase in epidermal thickness, changes in epidermal thickness in each of the groups over the 12-week course of the retinoic acid therapy were also assessed. The mean values for the placebo/placebo+RA, placebo/MN+RA, and MN/MN+RA groups at the baseline were 37.9, 38.8, and 39.3 μm, respectively. […]
# caspase 14 = assay: Caspase 14 expression in study subjects; type: in vivo, human
# Text: (§4) To investigate this, the levels of expression of both caspase 14 and filaggrin were investigated in the groups of subjects referred to supra, (i.e., subjects who received placebo alone for one month, then placebo plus retinoic acid, and those who received placebo only for one month and then myristyl nicotinate and retinoic acid during the treatment phase.
# filaggrin = assay: Filaggrin expression in study subjects; type: in vivo, human
# Text: as §4
# photodamaged skin [6] = details: 5% myristyl nicotinate for 3 months, previous studies; cited from earlier work
# [7] = MN/MN+RA group (prior and concurrent MN)
smiles,measurement,setting,value
CCCCCCCCCCCCCCOC(=O)c1cccnc1 [myristyl nicotinate],higher mean stratum corneum thickness compared to the mean values of the other groups,"photodamaged skin [1]; MN/MN+RA group at baseline, after one month of 5% myristyl nicotinate, not significant at p<0.05",approximately 11%
same,change in stratum corneum thickness,"photodamaged skin [1]; concurrent use of 5% myristyl nicotinate and 0.025% retinoic acid, 12 weeks",did not result in a decrease in stratum corneum thickness
same,change from baseline in mean rates of TEWL,photodamaged skin [2]; [7],not statistically significant
same,change from baseline in mean rates of TEWL,photodamaged skin [2]; placebo/MN+RA group (concurrent MN),not statistically significant
same,incidence of tingling,photodamaged skin [3]; [7],zero
same,"frequency of tightness/dryness, stinging, and burning",photodamaged skin [3]; concurrent use of myristyl nicotinate with retinoic acid therapy,decreased
same,grading of erythema vs placebo,"photodamaged skin [3]; myristyl nicotinate treated subjects on 0.025% retinoic acid, difference not statistically significant",consistently slightly higher
same,"frequency of tightness/dryness, stinging, and burning",photodamaged skin [3]; prior and concurrent myristyl nicotinate use with retinoic acid therapy,further reduced
same,grading of temple laxity vs placebo/placebo+RA,"photodamaged skin [4]; MN/MN+RA group, p=0.02",statistically significant greater improvement
same,tactile roughness scores,"photodamaged skin [4]; MN/MN+RA group, weeks 4 to 12",consistently showed greater improvement
same,grading of temple laxity vs placebo/placebo+RA,"photodamaged skin [4]; placebo/MN+RA group, not significant at p<0.05",trend for greater improvement
same,mean epidermal thickness,"photodamaged skin [5]; MN/MN+RA group at baseline, after one month of 5% myristyl nicotinate",39.3 μm
same,increase in epidermal thickness,photodamaged skin [5]; myristyl nicotinate concurrent with retinoic acid,approximately 3%
same,increase in epidermal thickness,"photodamaged skin [5]; myristyl nicotinate prior/concurrent with retinoic acid, p=0.0007 vs placebo/placebo+RA",approximately 10%
same,increase in caspase 14 expression,"caspase 14; placebo, retinoic acid and myristyl nicotinate for 3 months",24%
same,average increase in filaggrin expression,"filaggrin; placebo, myristyl nicotinate and retinoic acid",13%
same,increase in stratum corneum thickness,photodamaged skin [6],more than 50%
"CC1=C(/C=C/C(C)=C/C=C/C(C)=C/C(=O)O)C(C)(C)CCC1 [retinoic acid, All-trans-retinoic acid]",reduction in stratum corneum thickness,"photodamaged skin [1]; placebo/placebo+RA group, 12 weeks of 0.025% retinoic acid therapy, p=0.006 vs. baseline",approximately 24%
same,increase in rates of TEWL,"photodamaged skin [2]; placebo/placebo+RA group, 12 week period, p<0.0001",approximately 45%
same,frequency of tingling,"photodamaged skin [3]; retinoic acid therapy 0.025%, frequency reported in the study",2%
same,decrease in mean epidermal thickness,"photodamaged skin [5]; retinoic acid and placebo cream, 12 week study",approximately 5%
same,average increase in caspase 14 expression,caspase 14; placebo plus retinoic acid for 3 months,5%
same,change in filaggrin expression,filaggrin; subjects not treated with myristyl nicotinate (placebo plus retinoic acid),no change
